Laboratory results reported in patent US9387216B2, “Biomarkers for treatment of neoplastic disorders using androgen-targeted therapies” (Tokai Pharmaceuticals, Inc., priority 2013, dated 2016).
Where two headings read alike, the source gives them in different places.

Columns and labels:
[1] = tested on: AR nuclear translocation; assay: AR nuclear translocation by immunocytochemistry / immunofluorescence; format: cell-based
[2] = tested on: AR and prostate-specific antigen (PSA) protein expression; assay: AR and PSA protein expression (western blot) in LNCaP and Enzalutamide resistant cells; format: cell-based
[3] = tested on: AR activity; assay: AR luciferase assay; format: cell-based
[4] = cited from earlier work
[5] = tested on: CWR22rv1 cell line; assay: Cell proliferation in CWR22rv1 cell line; format: cell-based
[6] = tested on: LuCaP136 castration resistant xenograft tumors which express AR-V7; assay: Xenograft model of CRPC in mice (LuCaP136); format: in vivo
Method: Galeterone was tested in a xenograft model of CRPC in mice. […] AR-V7 was detected in LuCaP136 castration resistant xenograft tumors using RT-PCR.

[7] = biological target: T1, full-length AR and AR-V7 (Homo sapiens, UniProt P10275, H875Y); format: cell-based
T1 construct: CWR22rv1 cell line which constitutively expresses both AR and AR-V7; endogenous in cells; host or cells: CWR22rv1
T1 sequence (P10275 1-920 H875Y): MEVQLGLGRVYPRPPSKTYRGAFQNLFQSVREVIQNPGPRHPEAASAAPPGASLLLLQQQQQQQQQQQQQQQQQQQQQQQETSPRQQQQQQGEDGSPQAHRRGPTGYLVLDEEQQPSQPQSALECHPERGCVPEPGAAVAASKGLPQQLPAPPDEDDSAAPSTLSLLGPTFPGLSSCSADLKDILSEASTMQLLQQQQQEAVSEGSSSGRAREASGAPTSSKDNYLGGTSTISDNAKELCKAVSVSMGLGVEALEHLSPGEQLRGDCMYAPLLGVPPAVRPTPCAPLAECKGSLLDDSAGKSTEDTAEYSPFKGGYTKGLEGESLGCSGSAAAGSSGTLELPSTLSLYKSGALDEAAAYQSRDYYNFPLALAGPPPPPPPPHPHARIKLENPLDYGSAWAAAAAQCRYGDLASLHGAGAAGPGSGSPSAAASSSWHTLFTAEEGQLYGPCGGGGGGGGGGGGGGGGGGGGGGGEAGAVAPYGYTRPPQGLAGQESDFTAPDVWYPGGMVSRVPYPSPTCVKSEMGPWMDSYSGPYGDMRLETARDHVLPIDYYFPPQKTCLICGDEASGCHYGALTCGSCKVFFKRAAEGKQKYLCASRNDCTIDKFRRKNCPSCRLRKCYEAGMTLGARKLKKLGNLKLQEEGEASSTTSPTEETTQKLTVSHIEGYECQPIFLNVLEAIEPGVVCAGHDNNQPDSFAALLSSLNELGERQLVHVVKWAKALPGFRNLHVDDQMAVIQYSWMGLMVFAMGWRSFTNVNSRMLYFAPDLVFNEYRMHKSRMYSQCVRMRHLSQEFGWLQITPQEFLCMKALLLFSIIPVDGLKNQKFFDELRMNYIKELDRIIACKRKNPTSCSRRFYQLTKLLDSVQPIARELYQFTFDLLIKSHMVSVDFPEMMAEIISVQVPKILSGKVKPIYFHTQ
Method: An experiment to detect expression of full-length AR and AR-V7 variant proteins was conducted in a CWR22rv1 cell line which constitutively expresses both AR and AR-V7. […] See also FIG. 4.

[8] = tested on: PSA levels; assay: PSA response of CRPC patients by AR C-terminal status; format: in vivo, human; settings: for maximal reductions in PSA levels: patients with AR C-terminal loss
Method: A group of six patients naive to previous CRPC therapy was analyzed with respect to AR status. Four of the six patients were identified as having AR receptors with a C-terminal loss as determined by the evaluation of C-terminal androgen receptor expression in relation to N-terminal androgen receptor expression. All four of the patients having this AR variant had maximal reductions in PSA levels of at least 50%.

[9] = biological target: T2, CYP17 lyase (Homo sapiens, UniProt P05093); settings: steroidogenic pathway; cited from earlier work
T2 sequence (P05093 1-508): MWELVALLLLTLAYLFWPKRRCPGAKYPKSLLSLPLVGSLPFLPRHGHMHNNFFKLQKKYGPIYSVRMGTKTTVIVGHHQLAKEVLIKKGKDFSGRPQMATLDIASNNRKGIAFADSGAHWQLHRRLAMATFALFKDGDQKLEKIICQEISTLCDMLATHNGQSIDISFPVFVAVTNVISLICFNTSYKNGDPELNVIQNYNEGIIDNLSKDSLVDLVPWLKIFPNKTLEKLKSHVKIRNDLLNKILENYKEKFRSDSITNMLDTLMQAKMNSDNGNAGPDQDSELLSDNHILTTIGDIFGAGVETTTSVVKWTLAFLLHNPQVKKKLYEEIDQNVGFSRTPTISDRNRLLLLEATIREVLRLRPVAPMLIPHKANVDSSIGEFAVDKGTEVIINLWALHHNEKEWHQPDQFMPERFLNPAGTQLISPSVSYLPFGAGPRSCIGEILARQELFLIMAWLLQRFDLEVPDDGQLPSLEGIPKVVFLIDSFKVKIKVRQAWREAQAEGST

[10] = tested on: AR-dependent gene expression; assay: AR-dependent gene expression in cells with wild-type AR and AR point mutations; format: cell-based
Description: These cells also express AR receptors with F876L mutation.

[11] = tested on: LNCaP cells, CRPC cells, Enzalutamide resistant cell lines 49F and 49C; assay: Crystal violet and MTT proliferation/viability assays in LNCaP, CRPC and Enzalutamide resistant (49C, 49F) cells; format: cell-based
[12] = enzalutamide-responsive CPRC cell line
[13] = patients expressing AR-V7 mRNA in circulating tumor cells

## C[C@]1(O)CC[C@H]2[C@@H]3CCC4=CC(=O)CCC4=C3C=C[C@@]21C [Compound R1881, reference compound]
[1]
  AR translocation to the nucleus: caused robust AR translocation to the nucleus

## CNC(=O)c1ccc(N2C(=S)N(c3ccc(C#N)c(C(F)(F)F)c3)C(=O)C2(C)C)cc1F [Enzalutamide, reference compound]
[2]; LNCaP cells
  AR and PSA protein expression levels: reduced AR and PSA protein expression levels
[3]; [12]
  AR activity (luciferase): reduced AR activity
[4]; AR-V7 negative patients
  patients for which PSA levels dropped by 50%: 53%
  time to progression: 6.1 months
[4]; [13]
  PSA decline: no PSA decline
  time to progression: 2.1 months

## C[C@]12CC[C@H](O)CC1=CC[C@@H]1[C@@H]2CC[C@]2(C)C(n3cnc4ccccc43)=CC[C@@H]12 [Galeterone, 3-β-Hydroxyl 17-(1H-benzimidazol-1-yl)androsta-5,16-diene]
[2]; Enzalutamide resistant cell line
  AR and PSA protein expression levels: still observed in resistant cells
[2]; LNCaP cells
  AR and PSA protein expression levels: induced a greater reduction in AR and prostate-specific antigen (PSA) protein expression
[5]
  cell proliferation: reduces cell proliferation
[6]
  response of castration resistant tumors which express AR-V7: respond
[7]
  abiraterone and enzalutamide resistance due to AR splice variants: successfully overcomes abiraterone and enzalutamide resistance due to AR splice variants
[1]; cytoplasmic vs nuclear green staining vs. control
  AR nuclear translocation (immunofluorescence, FIG. 15B): reduces AR nuclear translocation
[8]; 12 weeks at 2550 mg daily
  maximal reductions in PSA levels: at least 50%
[8]; 12 weeks at 2550 mg daily, listed as galeterone
  maximal reductions in PSA levels: > 50%
[8]; patients with C-terminal AR loss
  patients with maximal PSA response: 4/4
[8]; two patients without loss of the AR C-terminal domain, 12 weeks at 2550 mg daily
  reduction in PSA: did not respond as strongly
[3]; Enzalutamide resistant cell lines 49C and 49F
  AR activity (luciferase): reduced AR activity in all three cell lines
[3]; [12]
  AR activity (luciferase): reduced AR activity in all three cell lines
[3]; summary of the data
  AR activity (summary): strongly inhibits AR activity
[9]
  inhibition of CYP17 lyase: potent inhibitor
[10]
  AR-dependent gene expression: reduces AR-dependent gene expression
[11]; crystal violet and MTT assays, LNCaP cells, CRPC cells, Enzalutamide resistant cells
  anti-proliferative effects: had anti-proliferative effects
[11]; summary of the data
  castration-resistant LNCaP growth and enzalutamide-resistant cell growth in vitro: suppresses castration-resistant LNCaP growth as well as enzalutamide-resistant cell growth
